Results from US11160793B2, “Solid dosage forms of bendamustine” (Astellas Deutschland GmbH, priority 2008, dated 2021).
Counter-ions that a name gives are not always drawn.

Columns and labels:
[1] = 4.2-5.5 mg/kg, 7 patients, cited from earlier work
[2] = B6D2F1-mice, absorption from the gastro-intestinal tract; cited from earlier work
[3] = Stability of aqueous solution of bendamustine as a function of pH (hydrolysis); format: physicochemical

| SMILES | mean oral bioavailability ([1]; 25 mg capsules vs intravenous) [%] | time to maximal plasma levels after oral administration ([1]; 25 mg capsules) [h] | bio-availability [2] | pH above which significant hydrolytic decomposition is observed [3] |
| --- | --- | --- | --- | --- |
| Cn1c(CCCC(=O)O)nc2cc(N(CCCl)CCCl)ccc21 [bendamustine hydrochloride] | 57 | ≤ 1 | about 40% | – |
| Cn1c(CCCC(=O)O)nc2cc(N(CCCl)CCCl)ccc21 [bendamustine, 4-[5-[bis(2-chloroethyl)amino]-1-methylbenzimidazo-2-yl]butanoic acid] | – | – | – | higher than 5 |
